Assay results as given in patent publication US4436751A, “Nitrobenzyl monates antibacterial compounds” (Beecham Group Limited, priority 1980, dated 1984).
≈ marks a conversion by molar mass, not a printed value. Where two headings read alike, the source gives them in different places.

What was measured:
Assay type in all cases: cell-based
M. suipneumoniae OCD 1 = test: Anti-mycoplasmal MIC in vitro, Friis broth agarose (Table 1); settings: Mesomycoplasma hyopneumoniae, OCD1, 144 h
M. hyorhinis ATCC 23234 = test: as above; settings: Mesomycoplasma hyorhinis, ATCC23234, 144 h
[1] = system: M. bovigenitalium ATOC 14173; test: as above; settings: 144 h
[2] = system: M. suipneumoniae ATCC 25095; test: as above; settings: Mesomycoplasma hyopneumoniae, ATCC25095, 144 h
M. gallisepticum S6 = test: as above; settings: Mycoplasmoides gallisepticum
M. suipneumoniae LABER = test: as above; settings: Mesomycoplasma hyopneumoniae, 144 h
M. bovis RCTC 10131 = test: microbe, parasite or virus in culture; settings: RCTC10131, 144 h
M. suipneumoniae Str. 11 = test: Anti-mycoplasmal MIC in vitro, Friis broth agarose (Table 1); settings: Mesomycoplasma hyopneumoniae, STR.11, 144 h
[3] = system: M. suipneumoniae PW/C/210; test: as above; settings: Mesomycoplasma hyopneumoniae, 144 h
E. Coli E1 = test: Veterinary bacteria MIC, Diagnostic Sensitivity Test Agar (Table 2); settings: Escherichia coli, 18 h
Protocol: (§1) The values were determined using a two fold serial dilutions in Diagnostic Sensitivity Test Agar with an inoculum of 10^4 organisms and incubation for 18 hours at 37° C.

Strep. uberis SPO1 = test: as above; settings: Streptococcus uberis; Strep. uberis SPO1; DST Agar, 10^4 organisms, 18 hours 37° C.; read-out: MIC
Protocol: as §1

Strep. dylgalactiae SPD1 = test: as above
Protocol: as §1

Strep. agalactiae SPA1 = test: as above; settings: Streptococcus agalactiae; Strep. agalactiae SPA1; DST Agar, 10^4 organisms, 18 hours 37° C.; read-out: MIC
Protocol: as §1

Staph. aureus 152 = test: as above
Protocol: as §1

Past. haemolytica PA5 = test: as above; settings: Mannheimia haemolytica; Past. haemolytica PA5; DST Agar, 10^4 organisms, 18 hours 37° C.; read-out: MIC
Protocol: as §1

Staph. aureus Oxford = test: as above; settings: Staphylococcus aureus
Protocol: as §1

Bord. bronchiseptica BO8 = test: as above; settings: Bordetella bronchiseptica, BO8, 18 h
Protocol: as §1

S. dublin S7 = test: as above; settings: Salmonella enterica, S7, 18 h
Protocol: as §1

Past. multocida PA1 = test: as above; settings: Pasteurella multocida
Protocol: as §1

[4] = system: Corynebacterium pyogenes CY1; test: as above; settings: Trueperella pyogenes, CY1, 18 h
Protocol: as §1

Bord. bronchiseptica BO9 = test: as above; settings: Bordetella bronchiseptica
Protocol: as §1

[5] = system: Erysipelothrix rhusiopathiae NCTC 8163; test: as above
Protocol: as §1

[6] = system: Strep. suis (group D) SPS11; test: as above; settings: Streptococcus suis
Protocol: as §1

E. Coli NCTC 10418 = test: as above; settings: Escherichia coli, NCTC10418, 18 h
Protocol: as §1

S. typhimurium S18 = test: as above; settings: Salmonella enterica, TYPHIMURIUM, 18 h
Protocol: as §1

Past. multocida PA2 = test: as above; settings: Pasteurella multocida
Protocol: as §1

Staph. aureus B4 = test: as above; settings: Staphylococcus aureus; Staph. aureus B4; DST Agar, 10^4 organisms, 18 hours 37° C.; read-out: MIC
Protocol: as §1

M. suipneumoniae MS 16 = test: Anti-mycoplasmal MIC in vitro, Friis broth agarose (Table 1); settings: Mesomycoplasma hyopneumoniae, MS16, 144 h
[7] = Strep. dylgalactiae SPD1, DST Agar, 10^4 organisms, 18 hours 37° C., read-out: MIC
[8] = Staphylococcus aureus, Staph. aureus 152, DST Agar, 10^4 organisms, 18 hours 37° C., read-out: MIC
[9] = Staph. aureus Oxford, DST Agar, 10^4 organisms, 18 hours 37° C., read-out: MIC
[10] = Bord. bronchiseptica BO9, DST Agar, 10^4 organisms, 18 hours 37° C., read-out: MIC
[11] = Past. multocida PA1, DST Agar, 10^4 organisms, 18 hours 37° C., read-out: MIC
[12] = NCTC8163, Erysipelothrix rhusiopathiae NCTC 8163, DST Agar, 10^4 organisms, 18 hours 37° C., read-out: MIC
[13] = Strep. suis (group D) SPS11, DST Agar, 10^4 organisms, 18 hours 37° C., read-out: MIC
[14] = Past. multocida PA2, DST Agar, 10^4 organisms, 18 hours 37° C., read-out: MIC

SMILES | MIC (M. suipneumoniae OCD 1) [µg/mL] | MIC (M. hyorhinis ATCC 23234) [µg/mL] | MIC [1] [µg/mL] | MIC [2] [µg/mL] | MIC (M. gallisepticum S6; S6, 144 h) [µg/mL] | MIC (M. suipneumoniae LABER) [µg/mL] | MIC (M. bovis RCTC 10131) [µg/mL] | MIC (M. suipneumoniae Str. 11) [µg/mL] | MIC [3] [µg/mL] | MIC (E. Coli E1) [µg/mL] | MIC (Strep. uberis SPO1) [µg/mL] | MIC (Strep. agalactiae SPA1) [µg/mL] | MIC (Past. haemolytica PA5) [µg/mL] | MIC (Bord. bronchiseptica BO8) [µg/mL] | MIC (S. dublin S7) [µg/mL] | MIC [4] [µg/mL] | MIC (E. Coli NCTC 10418) [µg/mL] | MIC (S. typhimurium S18) [µg/mL] | MIC (Staph. aureus B4) [µg/mL] | MIC (M. suipneumoniae MS 16) [µg/mL] | also measured
C/C(=C\C(=O)OCc1ccc([N+](=O)[O-])cc1Cl)CC1OCC(CC2OC2C(C)C(C)O)C(O)C1O (stereo not drawn) [Example 11, 2-chloro-4-nitrobenzyl monate A] | 2.5 (≈ 4.86 µM) | 0.5 (≈ 0.973 µM) | 0.05 (≈ 0.0973 µM) | 1 (≈ 1.95 µM) | 2.5 (≈ 4.86 µM) | 1 (≈ 1.95 µM) | 0.025 (≈ 0.0486 µM) | 1 (≈ 1.95 µM) | 1 (≈ 1.95 µM) | 80 (≈ 156 µM) | ≤ 0.019 | 0.156 (≈ 0.304 µM) | 2.5 (≈ 4.86 µM) | 10 (≈ 19.5 µM) | 80 (≈ 156 µM) | > 80 | 80 (≈ 156 µM) | 80 (≈ 156 µM) | 0.156 (≈ 0.304 µM) | 1 (≈ 1.95 µM) | MIC (Strep. dylgalactiae SPD1; [7]): 0.156 µg/mL (≈ 0.304 µM); MIC (Staph. aureus 152; [8]): 0.07 µg/mL (≈ 0.136 µM); MIC (Staph. aureus Oxford; [9]): 0.07 µg/mL (≈ 0.136 µM); MIC (Past. multocida PA1; PA1, 18 h): 0.625 µg/mL (≈ 1.22 µM); MIC (Bord. bronchiseptica BO9; [10]): 2.5 µg/mL (≈ 4.86 µM); MIC ([5]; Erysipelothrix rhusiopathiae, NCTC8163, 18 h): 5 µg/mL (≈ 9.73 µM); MIC ([6]; 18 h): 0.625 µg/mL (≈ 1.22 µM); MIC (Past. multocida PA2; PA2, 18 h): 0.156 µg/mL (≈ 0.304 µM)
C/C(=C\C(=O)OCc1cccc([N+](=O)[O-])c1C)CC1OCC(CC2OC2C(C)C(C)O)C(O)C1O (stereo not drawn) [Example 8, 2-methyl-3-nitrobenzyl monate A] |  | 0.1 (≈ 0.203 µM) |  | 0.1 (≈ 0.203 µM) |  | 0.1 (≈ 0.203 µM) | < 0.01 | 0.1 (≈ 0.203 µM) | 0.1 (≈ 0.203 µM) | > 80 | 0.07 (≈ 0.142 µM) | 0.625 (≈ 1.27 µM) | 10 (≈ 20.3 µM) | 40 (≈ 81 µM) | > 80 | > 80 | > 80 | > 80 | 0.625 (≈ 1.27 µM) | 0.1 (≈ 0.203 µM) | MIC (M. suipneumoniae OCD 1; M. suipneumoniae OCD 1, in vitro, 6 days 37° C., read-out: MIC): 0.25 µg/mL (≈ 0.507 µM); MIC ([1]; M. bovigenitalium ATOC 14173, in vitro, 6 days 37° C., read-out: MIC): 0.025 µg/mL (≈ 0.0507 µM); MIC (M. gallisepticum S6; 144 h, M. gallisepticum S6, in vitro, 6 days 37° C., read-out: MIC): 5 µg/mL (≈ 10.1 µM); MIC (Strep. dylgalactiae SPD1; 18 h): 0.312 µg/mL (≈ 0.632 µM); MIC (Staph. aureus 152; Staphylococcus aureus, 152, 18 h): 0.312 µg/mL (≈ 0.632 µM); MIC (Staph. aureus Oxford; 18 h): 0.312 µg/mL (≈ 0.632 µM); MIC (Past. multocida PA1; [11]): 1.25 µg/mL (≈ 2.53 µM); MIC (Bord. bronchiseptica BO9; [10]): 5 µg/mL (≈ 10.1 µM); MIC [5, 12]: 20 µg/mL (≈ 40.5 µM); MIC [6, 13]: 5 µg/mL (≈ 10.1 µM); MIC (Past. multocida PA2; [14]): 1.25 µg/mL (≈ 2.53 µM)
C/C(=C\C(=O)OCc1ccccc1[N+](=O)[O-])CC1OCC(CC2OC2C(C)C(C)O)C(O)C1O (stereo not drawn) [C, O--nitrobenzyl monate A, reference compound] | 0.5 (≈ 1.04 µM) | 0.25 (≈ 0.521 µM) | 0.025 (≈ 0.0521 µM) | 0.25 (≈ 0.521 µM) | 5 (≈ 10.4 µM) | 0.25 (≈ 0.521 µM) | ≤ 0.01 | 0.25 (≈ 0.521 µM) | 0.25 (≈ 0.521 µM) | > 80 | 0.07 (≈ 0.146 µM) | 2.5 (≈ 5.21 µM) | 10 (≈ 20.9 µM) | 80 (≈ 167 µM) | > 80 | > 80 | > 80 | > 80 | 0.625 (≈ 1.3 µM) | 0.25 (≈ 0.521 µM) | MIC (Strep. dylgalactiae SPD1; [7]): 0.625 µg/mL (≈ 1.3 µM); MIC (Staph. aureus 152; [8]): 0.625 µg/mL (≈ 1.3 µM); MIC (Staph. aureus Oxford; [9]): 0.625 µg/mL (≈ 1.3 µM); MIC (Past. multocida PA1; [11]): 2.5 µg/mL (≈ 5.21 µM); MIC (Bord. bronchiseptica BO9; BO9, 18 h): 10 µg/mL (≈ 20.9 µM); MIC [5, 12]: 80 µg/mL (≈ 167 µM); MIC [6, 13]: 20 µg/mL (≈ 41.7 µM); MIC (Past. multocida PA2; [14]): 1.25 µg/mL (≈ 2.61 µM)
